From BindingDB's records for doi:10.1016/j.bmcl.2011.09.056 (Merck Research Laboratories, 2011) come the findings set out here.

Experiment [1] in a line: Displacement of [125I]CGRP form CGRP receptor in human SK-N-MC cell membrane by competitive binding assay. (In general: Loss of bound radioactivity is the signal in a displacement assay; it reports binding, not function.)
A short description of experiment [2]: Displacement of [125I]CGRP form CGRP receptor in human SK-N-MC cell membrane by competitive binding assay in the absence of MgCl2.

As a reminder, the Ki is a dissociation constant, usually derived from enzyme kinetics or from competition with a known ligand. The low end stands for tighter binding, the high end for weaker binding. Turning to `CC(C)C[C@H](NC(=O)CNC(=O)[C@H](C)NC(=O)[C@H](CC(C)C)NC(=O)[C@H](CCCN=C(N)N)NC(=O)[C@H](Cc1cnc[nH]1)NC(=O)[C@@H](NC(=O)[C@@H](NC(=O)[C@H](CS)NC(=O)[C@@H](NC(=O)[C@H](C)NC(=O)[C@@H](NC(=O)[C@H](CC(=O)O)NC(=O)[C@H](CS)NC(=O)[C@H](C)N)[C@@H](C)O)[C@@H](C)O)C(C)C)[C@@H](C)O)C(=O)N[C@@H](CC(C)C)C(=O)N[C@@H](CO)C(=O)N[C@@H](CCCN=C(N)N)C(=O)N[C@@H](CO)C(=O)NCC(=O)NCC(=O)N[C@H](C(=O)N[C@H](C(=O)N[C@@H](CCCCN)C(=O)N[C@@H](CC(N)=O)C(=O)N[C@@H](CC(N)=O)C(=O)N[C@@H](Cc1ccccc1)C(=O)N[C@H](C(=O)N1CCC[C@H]1C(=O)N[C@H](C(=O)N[C@@H](CC(N)=O)C(=O)N[C@H](C(=O)NCC(=O)N[C@@H](CO)C(=O)N[C@@H](CCCCN)C(=O)N[C@@H](C)C(=O)N[C@@H](Cc1ccccc1)C(N)=O)C(C)C)[C@@H](C)O)C(C)C)C(C)C)C(C)C`, the Ki in experiment [1] and in experiment [2] was 0.01 nM in each case.
